One data set relates to RAW 264.7 cells. Kind of data set: Phagocytosis assay with Fluorescein-labeled Escherichia coli. It is filed as cell-based, mouse. Particulars: peptide 10 micrograms per ml. Here is the method:
RAW 264.7 (Mouse leukaemic monocyte macrophage cell line) cells were obtained from ATCC and grown in RPMI 1640 medium containing 10% FBS. Cells were incubated in 12×75 mm tubes at 37° C. with test peptide—10 micrograms per ml—for 30 min prior to adding Fluorescein-labeled Escherichia coli bacteria as the agent to be ingested. After the cells were incubated for additional 60 min at 37° C. and allowed to ingest the Fluorescein-labeled Escherichia coli bacteria, cells were fixed with 1% paraformaldehyde. The samples were then analyzed by flow cytometry to determine the amount of phagocytosis as a function of brightness (the greater the phagocytic activity, the more fluorescence in the macrophage population). Data are reported as % positive and the mean fluorescence intensity (MFI) of positively stained cells.

Data set [1] in a line: Cytotoxicity (MTS cell viability) in HIV-1 assay. As to conditions: human, CEM-SS cells.

The source of these data is US20100204149A1, “USE OF OCTREOTIDE AS A THERAPEUTIC AGENT” (priority 2007, published 2010).

One may read the viability as the share of living cells, or the viability signal relative to a control. Low values mean a greater loss of cells, high ones better survival.

Take `C[C@@H](O)[C@@H]1NC(=O)[C@H](CCCCN)NC(=O)[C@@H](Cc2c[nH]c3ccccc23)NC(=O)[C@H](Cc2ccccc2)NC(=O)[C@@H](NC(=O)[C@H](N)Cc2ccccc2)CSSC[C@@H](C(=O)N[C@H](CO)[C@@H](C)O)NC1=O` [Octreotide, H-D-Phe-Cys-Phe-D-Trp-Lys-Thr-Cys-L-threoninol]: in the data set with RAW 264.7 cells, the “% of control phagocytosis” value came to 105.9%. The viability at 10 micrograms per ml in data set [1] was determined as 100%.
